Experimental data reported in ChEMBL document CHEMBL4004849, “Tetrazolylmethyl quinolines: Design, docking studies, synthesis, anticancer and antifungal analyses” (2017).
Values after ≈ are worked out from the molar mass of the structure shown. Active and inactive are the calls of the source. The calls are words filed in the database; no cut-off is given here.

Tests used:
Assay type in all cases: functional
SW-620 = assay: Growth inhibition of human SW620 cells at 10^-5 M incubated for 48 hrs by sulforhodamine B assay relative to control
NCI-H460 = assay: Growth inhibition of human NCI-H460 cells at 10^-5 M incubated for 48 hrs by sulforhodamine B assay relative to control
Candida albicans [1] = assay: Antifungal activity against Candida albicans at 100 ug/ml by disc diffusion method; settings: read-out: IZ
NCI/ADR-RES = assay: Growth inhibition of human NCI-ADR-RES cells at 10^-5 M incubated for 48 hrs by sulforhodamine B assay relative to control
MDA-MB-231 = assay: Growth inhibition of human MDA-MB-231/ATCC cells at 10^-5 M incubated for 48 hrs by sulforhodamine B assay relative to control
Hs-578T = assay: Growth inhibition of human Hs 578T cells at 10^-5 M incubated for 48 hrs by sulforhodamine B assay relative to control
HCC 2998 = assay: Growth inhibition of human HCC2998 cells at 10^-5 M incubated for 48 hrs by sulforhodamine B assay relative to control
SK-MEL-5 = assay: Growth inhibition of human SK-MEL-5 cells at 10^-5 M incubated for 48 hrs by sulforhodamine B assay relative to control
M14 = assay: Growth inhibition of human M14 cells at 10^-5 M incubated for 48 hrs by sulforhodamine B assay relative to control
T47D = assay: Growth inhibition of human T47D cells at 10^-5 M incubated for 48 hrs by sulforhodamine B assay relative to control
OVCAR-5 = assay: Growth inhibition of human OVCAR5 cells at 10^-5 M incubated for 48 hrs by sulforhodamine B assay relative to control
TK-10 = assay: Growth inhibition of human TK10 cells at 10^-5 M incubated for 48 hrs by sulforhodamine B assay relative to control
HCT-116 = assay: Growth inhibition of human HCT116 cells at 10^-5 M incubated for 48 hrs by sulforhodamine B assay relative to control
BT-549 = assay: Growth inhibition of human BT549 cells at 10^-5 M incubated for 48 hrs by sulforhodamine B assay relative to control
HCT-15 = assay: Growth inhibition of human HCT15 cells at 10^-5 M incubated for 48 hrs by sulforhodamine B assay relative to control
MDA-MB-468 = assay: Growth inhibition of human MDA-MB-468 cells at 10^-5 M incubated for 48 hrs by sulforhodamine B assay relative to control
COLO 205 = assay: Growth inhibition of human COLO205 cells at 10^-5 M incubated for 48 hrs by sulforhodamine B assay relative to control
LOX IMVI = assay: Growth inhibition of human LOXIMVI cells at 10^-5 M incubated for 48 hrs by sulforhodamine B assay relative to control
786-0 = assay: Growth inhibition of human 786-0 cells at 10^-5 M incubated for 48 hrs by sulforhodamine B assay relative to control
HL-60(TB) = assay: Growth inhibition of human HL-60(TB) cells at 10^-5 M incubated for 48 hrs by sulforhodamine B assay relative to control
OVCAR-4 = assay: Growth inhibition of human OVCAR4 cells at 10^-5 M incubated for 48 hrs by sulforhodamine B assay relative to control
SF-295 = assay: Growth inhibition of human SF295 cells at 10^-5 M incubated for 48 hrs by sulforhodamine B assay relative to control
A549 = assay: Growth inhibition of human A549/ATCC cells at 10^-5 M incubated for 48 hrs by sulforhodamine B assay relative to control
KM12 = assay: Growth inhibition of human KM12 cells at 10^-5 M incubated for 48 hrs by sulforhodamine B assay relative to control
MOLT-4 = assay: Growth inhibition of human MOLT4 cells at 10^-5 M incubated for 48 hrs by sulforhodamine B assay relative to control
RXF 393 = assay: Growth inhibition of human RXF393 cells at 10^-5 M incubated for 48 hrs by sulforhodamine B assay relative to control
NCI-H23 = assay: Growth inhibition of human NCI-H23 cells at 10^-5 M incubated for 48 hrs by sulforhodamine B assay relative to control
Candida albicans [2] = assay: Antifungal activity against Candida albicans after 24 hrs by serial dilution method
MCF7 = assay: Growth inhibition of human MCF7 cells at 10^-5 M incubated for 48 hrs by sulforhodamine B assay relative to control
U-251 = assay: Growth inhibition of human U251 cells at 10^-5 M incubated for 48 hrs by sulforhodamine B assay relative to control
NCI-H522 = assay: Growth inhibition of human NCI-H522 cells at 10^-5 M incubated for 48 hrs by sulforhodamine B assay relative to control
OVCAR-8 = assay: Growth inhibition of human OVCAR8 cells at 10^-5 M incubated for 48 hrs by sulforhodamine B assay relative to control
SF-539 = assay: Growth inhibition of human SF539 cells at 10^-5 M incubated for 48 hrs by sulforhodamine B assay relative to control
SK-MEL-2 = assay: Growth inhibition of human SK-MEL-2 cells at 10^-5 M incubated for 48 hrs by sulforhodamine B assay relative to control
UO-31 = assay: Growth inhibition of human UO31 cells at 10^-5 M incubated for 48 hrs by sulforhodamine B assay relative to control
EKVX = assay: Growth inhibition of human EKVX cells at 10^-5 M incubated for 48 hrs by sulforhodamine B assay relative to control
Aspergillus fumigatus = assay: Antifungal activity against Aspergillus fumigatus after 24 hrs by serial dilution method
SNB-19 = assay: Growth inhibition of human SNB19 cells at 10^-5 M incubated for 48 hrs by sulforhodamine B assay relative to control
UACC-257 = assay: Growth inhibition of human UACC257 cells at 10^-5 M incubated for 48 hrs by sulforhodamine B assay relative to control
IGROV-1 = assay: Growth inhibition of human IGROV1 cells at 10^-5 M incubated for 48 hrs by sulforhodamine B assay relative to control
SK-MEL-28 = assay: Growth inhibition of human SK-MEL-28 cells at 10^-5 M incubated for 48 hrs by sulforhodamine B assay relative to control
UACC-62 = assay: Growth inhibition of human UACC62 cells at 10^-5 M incubated for 48 hrs by sulforhodamine B assay relative to control
ACHN = assay: Growth inhibition of human ACHN cells at 10^-5 M incubated for 48 hrs by sulforhodamine B assay relative to control
SNB-75 = assay: Growth inhibition of human SNB75 cells at 10^-5 M incubated for 48 hrs by sulforhodamine B assay relative to control

Fc1ccc2nc(Cl)c(Cn3nnc(CSc4ccccc4)n3)cc2c1
growth inhibition (GI) (SW-620): Active
growth inhibition (GI) (NCI-H460): Active
zone of inhibition at 100 µg/mL (Candida albicans [1]): 18 mm
growth inhibition (GI) (NCI/ADR-RES): Active
growth inhibition (GI) (MDA-MB-231): Active
growth inhibition (GI) (Hs-578T): Active
growth inhibition (GI) (HCC 2998): Active
growth inhibition (GI) (SK-MEL-5): Active
growth inhibition (GI) (M14): Active
growth inhibition (GI) (T47D): Active
growth inhibition (GI) (OVCAR-5): Active
growth inhibition (GI) (TK-10): Active
growth inhibition (GI) (HCT-116): Active
growth inhibition (GI) (BT-549): Active
growth inhibition (GI) (HCT-15): Active
growth inhibition (GI) (MDA-MB-468): Active
growth inhibition (GI) (COLO 205): Active
growth inhibition (GI) (LOX IMVI): Active
growth inhibition (GI) (786-0): Active
growth inhibition (GI) (HL-60(TB)): Active
growth inhibition (GI) (OVCAR-4): Active
growth inhibition (GI) (SF-295): Active
growth inhibition (GI) (A549): Active
growth inhibition (GI) (KM12): Active
growth inhibition (GI) (MOLT-4): Active
growth inhibition (GI) (RXF 393): Active
growth inhibition (GI) (NCI-H23): Active
MIC (Candida albicans [2]): 50 µg/mL (≈ 130 µM)
growth inhibition (GI) (MCF7): Active
growth inhibition (GI) (U-251): Active
growth inhibition (GI) (NCI-H522): Active
growth inhibition (GI) (OVCAR-8): Active
growth inhibition (GI) (SF-539): Active
growth inhibition (GI) (SK-MEL-2): Active
growth inhibition (GI) (UO-31): Active
growth inhibition (GI) (EKVX): Active
MIC (Aspergillus fumigatus): 2.5 µg/mL (≈ 6.48 µM)
growth inhibition (GI) (SNB-19): Active
growth inhibition (GI) (UACC-257): Active
growth inhibition (GI) (IGROV-1): Active
growth inhibition (GI) (SK-MEL-28): Active
growth inhibition (GI) (UACC-62): Active
growth inhibition (GI) (ACHN): Active
growth inhibition (GI) (SNB-75): Active

COc1ccc2nc(Cl)c(Cn3nnc(Cc4ccccc4)n3)cc2c1
inhibition of growth at 10 µM (SW-620; SW-620, 48 h, read-out: GI): 33.6%
inhibition of growth at 10 µM (NCI-H460; NCI-H460, 48 h, read-out: GI): 60%
zone of inhibition at 100 µg/mL (Candida albicans [1]): 16 mm
inhibition of growth at 10 µM (NCI/ADR-RES; read-out: GI): 79.9%
inhibition of growth at 10 µM (MDA-MB-231; MDA-MB-231, 48 h, read-out: GI): 49.3%
inhibition of growth at 10 µM (Hs-578T; read-out: GI): 31.1%
inhibition of growth at 10 µM (HCC 2998; HCC 2998, 48 h, read-out: GI): 41%
inhibition of growth at 10 µM (SK-MEL-5; SK-MEL-5, 48 h, read-out: GI): 147%
inhibition of growth at 10 µM (M14; M14, 48 h, read-out: GI): 69.7%
inhibition of growth at 10 µM (T47D; read-out: GI): 97.6%
inhibition of growth at 10 µM (OVCAR-5; OVCAR-5, 48 h, read-out: GI): 17.2%
inhibition of growth at 10 µM (TK-10; TK-10, 48 h, read-out: GI): 65.1%
inhibition of growth at 10 µM (HCT-116; HCT-116, 48 h, read-out: GI): 70.8%
inhibition of growth at 10 µM (BT-549; BT-549, 48 h, read-out: GI): 79.7%
inhibition of growth at 10 µM (HCT-15; HCT-15, 48 h, read-out: GI): 63.5%
inhibition of growth at 10 µM (MDA-MB-468; MDA-MB-468, 48 h, read-out: GI): 70.1%
inhibition of growth at 10 µM (COLO 205; COLO 205, 48 h, read-out: GI): 75.1%
inhibition of growth at 10 µM (LOX IMVI; read-out: GI): 57.1%
inhibition of growth at 10 µM (786-0; 786-0, 48 h, read-out: GI): 52.5%
inhibition of growth at 10 µM (HL-60(TB); HL-60, 48 h, read-out: GI): 43.4%
inhibition of growth at 10 µM (OVCAR-4; OVCAR-4, 48 h, read-out: GI): 80.3%
inhibition of growth at 10 µM (SF-295; SF-295, 48 h, read-out: GI): 62.6%
inhibition of growth at 10 µM (A549; A549, 48 h, read-out: GI): 68.5%
inhibition of growth at 10 µM (KM12; KM12, 48 h, read-out: GI): 63.5%
inhibition of growth at 10 µM (MOLT-4; MOLT-4, 48 h, read-out: GI): 89.7%
inhibition of growth at 10 µM (RXF 393; RXF 393, 48 h, read-out: GI): 39.8%
inhibition of growth at 10 µM (NCI-H23; NCI-H23, 48 h, read-out: GI): 67.5%
MIC (Candida albicans [2]): 10 µg/mL (≈ 27.3 µM)
inhibition of growth at 10 µM (MCF7; MCF7, 48 h, read-out: GI): 72.1%
inhibition of growth at 10 µM (U-251; U-251, 48 h, read-out: GI): 46.8%
inhibition of growth at 10 µM (NCI-H522; NCI-H522, 48 h, read-out: GI): 62%
inhibition of growth at 10 µM (OVCAR-8; OVCAR-8, 48 h, read-out: GI): 59.5%
inhibition of growth at 10 µM (SF-539; SF-539, 48 h, read-out: GI): 32.5%
inhibition of growth at 10 µM (SK-MEL-2; SK-MEL-2, 48 h, read-out: GI): 50.4%
inhibition of growth at 10 µM (UO-31; UO-31, 48 h, read-out: GI): 85.3%
inhibition of growth at 10 µM (EKVX; read-out: GI): 75.5%
MIC (Aspergillus fumigatus): 25 µg/mL (≈ 68.3 µM)
inhibition of growth at 10 µM (SNB-19; SNB-19, 48 h, read-out: GI): 42%
inhibition of growth at 10 µM (UACC-257; UACC-257, 48 h, read-out: GI): 73.5%
inhibition of growth at 10 µM (IGROV-1; IGROV-1, 48 h, read-out: GI): 56.8%
inhibition of growth at 10 µM (SK-MEL-28; SK-MEL-28, 48 h, read-out: GI): 52.5%
inhibition of growth at 10 µM (UACC-62; UACC-62, 48 h, read-out: GI): 64.9%
inhibition of growth at 10 µM (ACHN; read-out: GI): 58.5%
inhibition of growth at 10 µM (SNB-75; SNB-75, 48 h, read-out: GI): 42.9%
